# Experimental data published in article PMC10748408 (Frontiers in Oncology, 2023).
# Test system: TLR4
# Assay: TLR4 silencing by vivo-morpholino, western blot of tumors
# Assay type: in vivo, BALB/c mice
# Settings: tumor-bearing mice, with 25 mg/kg ART, vs SC-MO, p<0.001
# Procedure: Normal and tumor tissues were homogenized in ice-cold radioimmunoprecipitation assay (RIPA) buffer containing a protease inhibitor cocktail. Proteins were resolved by 10% sodium dodecyl sulphate-polyacrylamide gel electrophoresis (SDS-PAGE), transferred onto polyvinylidene difluoride (PVDF) membranes, blocked with 5% fat-free milk and incubated with primary antibodies (1:1000 dilution) overnight at 4°C. Blots were subsequently washed and incubated with respective secondary antibodies, tagged with horseradish peroxidase. Protein expression was detected using enhanced chemiluminescence (ECL) kit ([37]). Blots were analyzed using the Gel Doc XR and band intensity quantified using ImageJ software (NIH, USA).
# Murine mammary tumors were allowed to develop in BALB/c mice injected with 10^7 4T1 cells. […] Control groups were set up, where normal mice and mice-bearing tumors received PBS for 7 days. At the end of the experiment, tissues were harvested and processed for subsequent experiments.
substance,measurement,value
"TLR4-VMO: vivo morpholino oligomers against TLR4 mRNA; 5' CAGGGAGGCATCATCCTGGCATTTT 3' (all phosphorodiamidate morpholino (PMO); vivo-morpholino from GeneTools, further chemistry not fully specified)",TLR4 expression,significantly diminished
